# In ChEMBL document CHEMBL4342442, “Usnic Acid Enaminone-Coupled 1,2,3-Triazoles as Antibacterial and Antitubercular Agents” (J Nat Prod, 2020):
# Calls of active or inactive are those of the source. The calls are words filed in the database; no cut-off is given here.
# How the values were obtained:
# [1] = system: Mycobacterium tuberculosis; assay: Antitubercular activity against Mycobacterium tuberculosis H37Rv assessed as reduction in microbial growth after 7 days by alamar blue assay; type: functional; details: 168 h
# Staphylococcus aureus [2] = assay: Antibacterial activity against Staphylococcus aureus MTCC 96 assessed as reduction in microbial growth after 24 hrs by CLSI based microdilution method; type: functional; details: MTCC 96, 24 h
# Staphylococcus aureus [3] = assay: Antibacterial activity against Staphylococcus aureus MTCC 96 assessed as diameter of zone of inhibition at 200 ug/ml after 24 hrs by agar well diffusion method; type: functional; details: for zone of inhibition at 200 µg/mL: MTCC 96, 24 h, read-out: DIZ
# [4] = Cytotoxicity against HEK cells assessed as reduction in cell viability after 24 hrs by MTT assay; type: cell-based, Homo sapiens; details: Homo sapiens, HEK293, 24 h; read-out: IC50
# Bacillus subtilis [5] = assay: Antibacterial activity against Bacillus subtilis MTCC 441 assessed as diameter of zone of inhibition at 200 ug/ml after 24 hrs by agar well diffusion method; type: functional; details: MTCC 441, 24 h, read-out: DIZ
# [6] = system: Staphylococcus epidermidis; assay: Antibacterial activity against Staphylococcus epidermidis assessed as reduction in microbial growth after 24 hrs by CLSI based microdilution method; type: functional
# Escherichia coli [7] = assay: Antibacterial activity against Escherichia coli MTCC 443 assessed as reduction in microbial growth after 24 hrs by CLSI based microdilution method; type: functional; details: MTCC 443, 24 h
# CHO-K1 = assay: Cytotoxicity against CHOK1 cells assessed as reduction in cell viability after 24 hrs by MTT assay; type: cell-based; details: Cricetulus griseus, CHO-K1, 24 h
# Klebsiella pneumoniae [8] = assay: Antibacterial activity against Klebsiella pneumoniae MTCC 618 assessed as reduction in microbial growth after 24 hrs by CLSI based microdilution method; type: functional; details: MTCC 618, 24 h
# Klebsiella pneumoniae [9] = assay: Antibacterial activity against Klebsiella pneumoniae MTCC 618 assessed as diameter of zone of inhibition at 200 ug/ml after 24 hrs by agar well diffusion method; type: functional; details: for zone of inhibition at 200 µg/mL: MTCC 618, 24 h, read-out: DIZ
# Escherichia coli [10] = assay: Antibacterial activity against Escherichia coli MTCC 443 assessed as diameter of zone of inhibition at 200 ug/ml after 24 hrs by agar well diffusion method; type: functional; details: for zone of inhibition at 200 µg/mL: MTCC 443, 24 h, read-out: DIZ
# Bacillus subtilis [11] = assay: Antibacterial activity against Bacillus subtilis MTCC 441 assessed as reduction in microbial growth after 24 hrs by CLSI based microdilution method; type: functional; details: MTCC 441, 24 h
# [12] = system: Staphylococcus epidermidis; assay: Antibacterial activity against Staphylococcus epidermidis assessed as diameter of zone of inhibition at 200 ug/ml after 24 hrs by agar well diffusion method; type: functional; details: for zone of inhibition at 200 µg/mL: read-out: DIZ
# Pseudomonas aeruginosa [13] = assay: Antibacterial activity against Pseudomonas aeruginosa MTCC 741 assessed as diameter of zone of inhibition at 200 ug/ml after 24 hrs by agar well diffusion method; type: functional; details: for zone of inhibition at 200 µg/mL: MTCC 741, 24 h, read-out: DIZ
# Pseudomonas aeruginosa [14] = assay: Antibacterial activity against Pseudomonas aeruginosa MTCC 741 assessed as reduction in microbial growth after 24 hrs by CLSI based microdilution method; type: functional; details: MTCC 741, 24 h
# [15] = system: Mycobacterium tuberculosis; assay: Antitubercular activity against Mycobacterium tuberculosis H37Rv assessed as log reduction in bacterial population at 10 ug/ml under starvation condition after 7 days by MPN assay; type: functional
smiles,measurement,setting,value
CC(=O)c1c(O)c(C)c(O)c2c1OC1=CC(=O)/C(=C(/C)NCc3cn(CC(=O)N4CCN(C/C=C/c5ccccc5)CC4)nn3)C(=O)C12C (stereo not drawn),MIC,[1],37.5 µM
CC(=O)c1c(O)c(C)c(O)c2c1OC1=CC(=O)/C(=C(/C)NCc3cn(CC(=O)c4nccs4)nn3)C(=O)C12C (stereo not drawn),MIC,[1],45.5 µM
CC(=O)c1c(O)c(C)c(O)c2c1OC1=CC(=O)/C(=C(/C)NCc3cn(CC(=O)N4CCOCC4)nn3)C(=O)C12C (stereo not drawn),MIC,[1],22.3 µM
same,MIC,Staphylococcus aureus [2],> 350 µM
same,diameter of the inhibition zone (DIZ),Staphylococcus aureus [3],inactive
same,IC50,[4],53.4 µM
same,zone of inhibition at 200 µg/mL,Bacillus subtilis [5],13 mm
same,MIC,[6],> 350 µM
same,MIC,Escherichia coli [7],> 350 µM
same,IC50,CHO-K1,23.3 µM
same,MIC,Klebsiella pneumoniae [8],> 350 µM
same,diameter of the inhibition zone (DIZ),Klebsiella pneumoniae [9],inactive
same,diameter of the inhibition zone (DIZ),Escherichia coli [10],inactive
same,MIC,Bacillus subtilis [11],90.7 µM
same,diameter of the inhibition zone (DIZ),[12],inactive
same,diameter of the inhibition zone (DIZ),Pseudomonas aeruginosa [13],inactive
same,MIC,Pseudomonas aeruginosa [14],> 350 µM
COc1ccc2cc(C(=O)Cn3cc(CN/C(C)=C4\C(=O)C=C5Oc6c(C(C)=O)c(O)c(C)c(O)c6C5(C)C4=O)nn3)ccc2c1 (stereo not drawn),MIC,[1],40.2 µM
CC(=O)C1=C(O)C=C2Oc3c(C(C)=O)c(O)c(C)c(O)c3C2(C)C1=O (stereo not drawn),MIC,[1],35.6 µM
COc1cccc(C(=O)Cn2cc(CN/C(C)=C3\C(=O)C=C4Oc5c(C(C)=O)c(O)c(C)c(O)c5C4(C)C3=O)nn2)c1 (stereo not drawn),MIC,[1],43.7 µM
CC(=O)c1c(O)c(C)c(O)c2c1OC1=CC(=O)/C(=C(/C)NCc3cn(CC(=O)c4ccc(Cl)s4)nn3)C(=O)C12C (stereo not drawn),MIC,[1],42.9 µM
CC(=O)c1c(O)c(C)c(O)c2c1OC1=CC(=O)/C(=C(/C)NCc3cn(CC(=O)c4ccc(C#N)cc4)nn3)C(=O)C12C (stereo not drawn),MIC,[1],44.1 µM
CC[C@@H](CO)NCCN[C@@H](CC)CO [ETHAMBUTOL],MIC,[1],7.6 µM
CC1(C)S[C@@H]2[C@H](NC(=O)Cc3ccccc3)C(=O)N2[C@H]1C(=O)O [PENICILLIN G],MIC,Staphylococcus aureus [2],3.5 µM
same,zone of inhibition at 200 µg/mL,Staphylococcus aureus [3],28 mm
same,zone of inhibition at 200 µg/mL,Bacillus subtilis [5],28 mm
same,MIC,[6],7 µM
same,MIC,Escherichia coli [7],27.8 µM
same,MIC,Klebsiella pneumoniae [8],27.8 µM
same,zone of inhibition at 200 µg/mL,Klebsiella pneumoniae [9],25 mm
same,zone of inhibition at 200 µg/mL,Escherichia coli [10],24 mm
same,MIC,Bacillus subtilis [11],3.5 µM
same,zone of inhibition at 200 µg/mL,[12],26 mm
same,zone of inhibition at 200 µg/mL,Pseudomonas aeruginosa [13],23 mm
same,MIC,Pseudomonas aeruginosa [14],27.8 µM
CN[C@@H]1[C@H](O[C@H]2[C@H](O[C@H]3[C@H](O)[C@@H](O)[C@H](N=C(N)N)[C@@H](O)[C@@H]3N=C(N)N)O[C@@H](C)[C@]2(O)C=O)O[C@@H](CO)[C@H](O)[C@H]1O [STREPTOMYCIN],MIC,Staphylococcus aureus [2],4 µM
same,zone of inhibition at 200 µg/mL,Staphylococcus aureus [3],23 mm
same,zone of inhibition at 200 µg/mL,Bacillus subtilis [5],24 mm
same,MIC,[6],4 µM
same,MIC,Escherichia coli [7],8.1 µM
same,MIC,Klebsiella pneumoniae [8],8.1 µM
same,zone of inhibition at 200 µg/mL,Klebsiella pneumoniae [9],26 mm
same,zone of inhibition at 200 µg/mL,Escherichia coli [10],23 mm
same,MIC,Bacillus subtilis [11],8.1 µM
same,zone of inhibition at 200 µg/mL,[12],25 mm
same,zone of inhibition at 200 µg/mL,Pseudomonas aeruginosa [13],28 mm
same,MIC,Pseudomonas aeruginosa [14],8.1 µM
NNC(=O)c1ccncc1 [ISONIAZID],MIC,[1],2.9 µM
same,FC,[15],1.5
CO[C@@]12[C@H](COC(N)=O)C3=C(C(=O)C(C)=C(N)C3=O)N1C[C@@H]1N[C@@H]12 [MITOMYCIN],IC50,CHO-K1,39.8 µM
CC(=O)c1c(O)c(C)c(O)c2c1OC1=CC(=O)/C(=C(/C)NCc3cn(CC(=O)c4ccc5c(c4)Cc4ccccc4-5)nn3)C(=O)C12C (stereo not drawn),MIC,[1],9.9 µM
CC(=O)c1c(O)c(C)c(O)c2c1OC1=CC(=O)/C(=C(/C)NCc3cn(CC(=O)N4CCN(c5ccccc5Cl)CC4)nn3)C(=O)C12C (stereo not drawn),MIC,[1],37.8 µM
same,MIC,Staphylococcus aureus [2],> 350 µM
same,MIC,[6],> 350 µM
same,MIC,Escherichia coli [7],> 350 µM
same,MIC,Klebsiella pneumoniae [8],> 350 µM
same,MIC,Bacillus subtilis [11],302 µM
same,MIC,Pseudomonas aeruginosa [14],> 350 µM
CC(=O)c1c(O)c(C)c(O)c2c1OC1=CC(=O)/C(=C(/C)NCc3cn(CC(=O)c4cc5ccccc5s4)nn3)C(=O)C12C (stereo not drawn),MIC,[1],41.8 µM
CO[C@H]1/C=C/O[C@@]2(C)Oc3c(C)c(O)c4c(O)c(c(/C=N/N5CCN(C)CC5)c(O)c4c3C2=O)NC(=O)/C(C)=C\C=C\[C@H](C)[C@H](O)[C@@H](C)[C@@H](O)[C@@H](C)[C@H](OC(C)=O)[C@@H]1C [RIFAMPIN],MIC,[1],0.6 µM
same,FC,[15],1.8
CC(=O)c1c(O)c(C)c(O)c2c1OC1=CC(=O)/C(=C(/C)NCc3cn(CC(=O)c4ccc(C(F)(F)F)cc4)nn3)C(=O)C12C (stereo not drawn),MIC,[1],41 µM
CC(=O)c1c(O)c(C)c(O)c2c1OC1=CC(=O)/C(=C(/C)NCc3cn(CC(=O)c4ccc(Br)s4)nn3)C(=O)C12C (stereo not drawn),MIC,[1],39.8 µM
